Where two headings read alike, the source gives them in different places.
Assays:
[1] = cited from earlier work
[2] = Kinetic solubility of neratinib maleate ASD powders, pH 4.0 phthalic acid buffer; format: physicochemical; conditions: pH 4.0 phthalic acid buffer solution, 37 °C, pH 4, aqueous buffer, thermodynamic from solid; crystalline
[3] = cited from earlier work; remark: listed apart in the source
[4] = system: EGFR autophosphorylation; conditions: in vitro; cited from earlier work
[5] = system: HER2 autophosphorylation; conditions: in vitro; cited from earlier work
[6] = system: MAPK signaling pathway; conditions: in vitro; cited from earlier work
[7] = system: AKT signaling pathway; conditions: in vitro; cited from earlier work
[8] = system: EGFR and/or HER2 expressing carcinoma cell lines; conditions: in vitro; cited from earlier work
[9] = second value listed in the cell

Row | Molecule | Measured or Calculated pKas ([1]; first value listed in the cell) | Measured or Calculated pKas [1, 9] | further results
1 | Cc1nc(NC(=O)N2CCC[C@H]2C(N)=O)sc1-c1ccnc(C(C)(C)C(F)(F)F)c1 [Alpelisib] | 3.3 | 9.4 | 
2 | CC1(C)S[C@@H]2[C@H](NC(=O)[C@H](N)c3ccc(O)cc3)C(=O)N2[C@H]1C(=O)O [Amoxicillin] | 3.39 | 6.71 | 
3 | Cn1cc(-c2cc3c(N4CCN(c5ncc([C@@](C)(N)c6ccc(F)cc6)cn5)CC4)ncnn3c2)cn1 [Avapritinib] | 6.97 | 4.57 | Measured or Calculated pKas ([1]; fourth value listed in the cell): 1.51; Measured or Calculated pKas ([1]; third value listed in the cell): 3.50
4 | CCC(C(=O)O)c1ccc(CC(C)C)cc1 (stereo not drawn) [Butibufen] | 4.64 |  | 
5 | CC(C(=O)O)c1ccc2c(c1)[nH]c1ccc(Cl)cc12 (stereo not drawn) [Carprofen] | 4.63 |  | 
6 | CN(C)[C@@H]1C(O)=C(C(N)=O)C(=O)[C@@]2(O)C(O)=C3C(=O)c4c(O)ccc(Cl)c4[C@@](C)(O)[C@H]3C[C@@H]12 [Chlortetracycline] | 3.33 ± 0.30 | 7.55 ± 0.02 | 
7 | CC[C@H]1OC(=O)[C@H](C)[C@@H](O[C@H]2C[C@@](C)(OC)[C@@H](O)[C@H](C)O2)[C@H](C)[C@@H](O[C@@H]2O[C@H](C)C[C@H](N(C)C)[C@H]2O)[C@](C)(OC)C[C@@H](C)C(=O)[C@H](C)[C@@H](O)[C@]1(C)O [Clarithromycin] | 7.25 |  | 
8 | CN1C[C@@H]2C[C@H]1CN2c1cc2c(cc1F)c(=O)c(C(=O)O)cn2C1CC1 [Danofloxacin] | 6.07 ± 0.06 | 8.56 ± 0.07 | 
9 | CC(O)c1cc(C(=O)N[C@@H](C)Cn2ccc(-c3ccc(C#N)c(Cl)c3)n2)[nH]n1 (stereo partly drawn) [Darolutamide] | 11.75 |  | 
10 | CN(C)[C@@H]1C(O)=C(C(N)=O)C(=O)[C@@]2(O)C(O)=C3C(=O)c4c(O)ccc(Cl)c4[C@@H](O)[C@H]3C[C@@H]12 [Demeclocycline] | 3.37 ± 0.30 | 7.36 ± 0.03 | 
11 | O=C(O)Cc1ccccc1Nc1c(Cl)cccc1Cl [Diclofenac] | 4.16 |  | 
12 | CN1CCN(c2cc3c(cc2F)c(=O)c(C(=O)O)cn3-c2ccc(F)cc2)CC1 [Difloxacin] | 5.66 ± 0.04 | 7.24 ± 0.06 | 
13 | C[C@H]1c2cccc(O)c2C(=O)C2=C(O)[C@]3(O)C(=O)C(C(N)=O)=C(O)[C@@H](N(C)C)[C@@H]3[C@@H](O)[C@@H]21 [Doxycycline] | 3.02 ± 0.30 | 7.97 ± 0.15 | 
14 | CCn1cc(C(=O)O)c(=O)c2cc(F)c(N3CCNCC3)nc21 [Enoxacin] | 5.05 ± 0.08 | 6.25 ± 0.05 | 
15 | CCN1CCN(c2cc3c(cc2F)c(=O)c(C(=O)O)cn3C2CC2)CC1 [Enrofloxacin] | 5.88 ± 0.03 | 7.74 ± 0.03 | 
16 | CNC(=O)c1ccc(N2C(=S)N(c3ccc(C#N)c(C(F)(F)F)c3)C(=O)C2(C)C)cc1F [Enzalutamide] | 3-11 |  | 
17 | C#Cc1cccc(Nc2ncnc3cc(OCCOC)c(OCCOC)cc23)c1.Cl [Erlotinib] | 5.4 |  | 
18 | CN1CCN(c2c(F)cc3c(=O)c(C(=O)O)cn(CCF)c3c2F)CC1 [Fleroxacin] | 5.46 | 8.00 | 
19 | CC(C(=O)O)c1ccc(-c2ccccc2)c(F)c1 (stereo not drawn) [Flurbiprofen] | 4.35 |  | 
20 | COc1cc2ncnc(Nc3ccc(F)c(Cl)c3)c2cc1OCCCN1CCOCC1 [Gefitinib] | 7.2 |  | 
21 | CC(C)Cc1ccc(C(C)C(=O)O)cc1 (stereo not drawn) [Ibuprofen] | 4.51 |  | 
22 | CC(CCc1ccccc1)NCC(O)c1ccc(O)c(C(N)=O)c1 (stereo not drawn) [Labetalol] | 7.35 |  | 
23 | CN1CCN(c2c(F)cc3c(=O)c(C(=O)O)cn4c3c2OCN4C)CC1 [Marbofloxacin] | 5.69 ± 0.10 | 8.02 ± 0.20 | 
24 | C=C1c2c(Cl)ccc(O)c2C(=O)C2=C(O)[C@]3(O)C(=O)C(C(N)=O)=C(O)[C@@H](N(C)C)[C@@H]3[C@@H](O)[C@H]12 [Meclocycline] | 4.05 ± 0.30 | 6.87 ± 0.39 | 
25 | CCOc1cc2ncc(C#N)c(Nc3ccc(OCc4ccccn4)c(Cl)c3)c2cc1NC(=O)/C=C/CN(C)C.O=C(O)/C=C\C(=O)O [Neratinib maleate, (E)-N-(4-((3-chloro-4-(pyridin-2-ylmethoxy)phenyl)amino)-3-cyano-7-ethoxyquinolin-6-yl)-4-(dimethylamino)but-2-enamide maleate] |  |  | solubility [2]: < 300 µg/mL; solubility ([3]; pH 1.2): 32900 µg/mL; solubility according to the product label ([3]; pH 1.2): sparingly soluble; solubility according to the product label ([3]; pH 5.0): insoluble; solubility ([3]; pH approximately 5.0): ≤ 80 µg/mL

Row | Molecule | Measured or Calculated pKas ([1]; first value listed in the cell) | Measured or Calculated pKas [1, 9] | further results
26 | CCOc1cc2ncc(C#N)c(Nc3ccc(OCc4ccccn4)c(Cl)c3)c2cc1NC(=O)/C=C/CN(C)C [Neratinib, neratinib] |  |  | EGFR autophosphorylation [4]: reduces; HER2 autophosphorylation [5]: reduces; downstream MAPK signaling pathway [6]: reduces; downstream AKT signaling pathway [7]: reduces; antitumor activity in carcinoma cell lines [8]: showed antitumor activity
27 | CC1COc2c(N3CCN(C)CC3)c(F)cc3c(=O)c(C(=O)O)cn1c23 (stereo not drawn) [Ofloxacin] | 6.22 ± 0.05 | 7.81 ± 0.08 | 
28 | COc1ccc2[nH]c([S+]([O-])Cc3ncc(C)c(OC)c3C)nc2c1 (stereo not drawn) [Omeprazole] | 4.14 | 8.90 | 
29 | C=CCOc1ccccc1OCC(O)CNC(C)C (stereo not drawn) [Oxprenolol] | 9.62 |  | 
30 | CN(C)[C@@H]1C(O)=C(C(N)=O)C(=O)[C@@]2(O)C(O)=C3C(=O)c4c(O)cccc4[C@@](C)(O)[C@H]3[C@H](O)[C@@H]12 [Oxytetracycline] | 3.04 | 8.00 | 
31 | Cc1ccc(Nc2nccc(N(C)c3ccc4c(C)n(C)nc4c3)n2)cc1S(N)(=O)=O.Cl [Pazopanib HCL] | 2.1 | 6.4 | Measured or Calculated pKas ([1]; third value listed in the cell): 10.2
32 | CCn1cc(C(=O)O)c(=O)c2cnc(N3CCNCC3)nc21 [Pipemidic acid] | 5.42 ± 0.05 | 8.18 ± 0.09 | 
33 | CC(=O)Nc1ccc(OCC(O)CNC(C)C)cc1 (stereo not drawn) [Practolol] | 9.41 |  | 
34 | CCN(CC)CCOC(=O)c1ccc(N)cc1 [Procaine] | 2.28 ± 0.08 | 9.02 ± 0.01 | 
35 | CC(C)NCC(O)COc1cccc2ccccc12 (stereo not drawn) [Propranolol] | 9.49 ± 0.2 |  | 
36 | CC[C@H]1OC(=O)[C@H](C)[C@@H](OC2C[C@@](C)(OC)C(O)C(C)O2)[C@H](C)[C@@H](O[C@@H]2OC(C)CC(N(C)C)C2O)[C@](C)(O)C[C@@H](C)/C(=N\OCOCCOC)[C@H](C)[C@@H](O)[C@]1(C)O (stereo partly drawn) [Roxithromycin] | 9.17 ± 0.30 |  | 
37 | O=C(O)c1cn(-c2ccc(F)cc2)c2cc(N3CCNCC3)c(F)cc2c1=O [Sarafloxacin] | 5.62 ± 0.08 | 8.18 ± 0.09 | 
38 | CC(=O)NS(=O)(=O)c1ccc(N)cc1 [Sulfacetamide] | 1.95 ± 0.11 | 5.30 ± 0.05 | 
39 | Nc1ccc(S(=O)(=O)Nc2ccc(Cl)nn2)cc1 [Sulfachlorpyridazine] | 1.87 ± 0.30 | 5.45 ± 0.06 | 
40 | Nc1ccc(S(=O)(=O)Nc2ncccn2)cc1 [Sulfadiazine] | 2.10 | 6.28 | 
41 | [H]/N=C(/N)NS(=O)(=O)c1ccc(N)cc1 [Sulfaguanidine] | 1.55 | 11.24 | 
42 | Cc1ccnc(NS(=O)(=O)c2ccc(N)cc2)n1 [Sulfamerazine] | 2.17 | 6.77 | 
43 | Cc1cc(C)nc(NS(=O)(=O)c2ccc(N)cc2)n1 [Sulfamethazine] | 2.28 | 7.42 | 
44 | Cc1nnc(NS(=O)(=O)c2ccc(N)cc2)s1 [Sulfamethizole] | 1.86 ± 0.30 | 5.29 ± 0.04 | 
45 | Nc1ccc(S(=O)(=O)Nc2nccs2)cc1 [Sulfathiazole] | 2.08 | 7.07 | 
46 | CC(C)(C)NC[C@H](O)COc1nsnc1N1CCOCC1 [Timolol] | 9.34 |  | 
47 | COc1cc(Cc2cnc(N)nc2N)cc(OC)c1OC [Trimethoprim] | 3.23 ± 0.30 | 6.76 ± 0.12 | 
48 | Fenbufen | 4.56 |  | 
49 | Tylosin | 3.31 ± 0.30 | 7.50 ± 0.13 | 

From patent US20240335390A9, “PHARMACEUTICAL COMPOSITIONS OF AMORPHOUS SOLID DISPERSIONS AND METHODS OF PREPARATION THEREOF” (Shenzhen Pharmacin Co., Ltd., priority 2020, published 2024)
